Experimental data: patent publication US20220401514A1, “ANTIMICROBIAL, BACTERIOPHAGE-DERIVED POLYPEPTIDES AND THEIR USE AGAINST GRAM-NEGATIVE AND ACID-FAST BACTERIA” (CONTRAFECT CORPORATION, priority 2019, published 2022)
Where two headings read alike, the source gives them in different places.

What was measured:
[1] = tested on: P. aeruginosa strain PA20 persister cells; experiment: Activity against persister cells, P. aeruginosa; assay type: cell-based, Pseudomonas aeruginosa; conditions: P. aeruginosa PA20 persister cells
[2] = tested on: A. baumannii strain BAA-747 persister cells; experiment: Activity against persister cells, A. baumannii; assay type: cell-based, Acinetobacter baumannii; conditions: A. baumannii BAA-747 persister cells
[3] = tested on: P. aeruginosa strain PAO1; experiment: MIC against PAO1 in Mueller-Hinton broth with 50% human plasma or human serum; assay type: cell-based, Pseudomonas aeruginosa; conditions: PAO1
[4] = tested on: carbapenem-resistant bacterial strains; experiment: organism not typed; assay type: cell-based
Text: (§1) Determination of Minimal Inhibitory Concentrations (MIC).

Escherichia coli = experiment: microbe, parasite or virus in culture; assay type: cell-based
How it was run: (§2)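 Read-out is the minimal inhibitory concentration of each peptide, measured in serum-supplemented CAA.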

Enterobacter cloacae = experiment: microbe, parasite or virus in culture; assay type: cell-based
How it was run: as §2

Pseudomonas aeruginosa = experiment: microbe, parasite or virus in culture; assay type: cell-based; conditions: for MIC: CAA without human serum
M. fortuitum = experiment: 45 hr MIC against M. fortuitum (NTM); assay type: cell-based, Mycobacterium fortuitum; conditions: M. fortuitum subsp. Fortuitum da Costa Cruz. ATCC 6841
S. maltophilia = experiment: MIC against S. maltophilia isolates; assay type: cell-based, Stenotrophomonas maltophilia; conditions: S. maltophilia isolates (n per peptide in table)
How it was run: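 Chp peptides were tested on a set of S. maltophilia isolates (n = isolates per species), with minimal inhibitory concentrations given in μg/mL.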

[5] = Stability assessment in 100% CAA; assay type: in vitro ADME; set-up: unit not given beside the values
Method: Stability was assessed after incubation in 100% human serum at 37° C. after 10 minutes, 1 hour, and 2 hours.
Stability assessment was further conducted in 100% CAA and rabbit serum using the same methodology discussed above.

[6] = tested on: carbapenem-resistant P. aeruginosa clinical isolate CFS-1292; experiment: MIC by modified CLSI broth microdilution against P. aeruginosa CFS-1292 (CAA, CAA + human serum); assay type: cell-based, Pseudomonas aeruginosa
[7] = tested on: P. aeruginosa strain CFS-1292; experiment: MIC in presence and absence of NaCl (140 mM); assay type: cell-based, Pseudomonas aeruginosa
Method: Certain Chp peptides were evaluated over a range of physiological NaCl levels and pH values, and were further evaluated for activity in the presence of various divalent cations.

M. scrofulaceum = experiment: 45 hr MIC against M. scrofulaceum (NTM); assay type: cell-based, Mycobacterium scrofulaceum; conditions: M. scrofulaceum Prissick and Masson ATCC 19981
Klebsiella pneumoniae [8] = experiment: microbe, parasite or virus in culture; assay type: cell-based; conditions: CAA without human serum
M. avium = experiment: 45 hr MIC against M. avium (NTM); assay type: cell-based, Mycobacterium avium; conditions: M. avium Chester ATCC 700898
[9] = tested on: M. kansasii Hauduroy ATCC 12478; experiment: 45 hr MIC against M. kansasii (NTM), Mueller Hinton broth; assay type: cell-based, Mycobacterium kansasii
Klebsiella pneumoniae [10] = assay type: cell-based
Method: as §1
Additional MIC testing was performed for several peptides against the ESKAPE pathogens Escherichia coli, Enterobacter cloacae, Klebsiella pneumoniae, and Acinetobacter baumannii, in CAA supplemented with human serum (Table D).

Acinetobacter baumannii = experiment: microbe, parasite or virus in culture; assay type: cell-based
M. smegmatis = experiment: 45 hr MIC against M. smegmatis (NTM), Mueller Hinton broth; assay type: cell-based, Mycobacterium smegmatis
[11] = tested on: Mycobacterium tuberculosis strains
Method: MIC values for various Chp peptides were determined using the CLSI method for broth microdilution in 96-well microtiter format.
Next, MIC values for various Chp peptides were determined using the CLSI method above for broth microdilution in 96-well microtiter format for two different Mycobacterium tuberculosis strains. The MIC was determined as explained above for the NTM strains.

M. intracellulare = experiment: 45 hr MIC against M. intracellulare (NTM); assay type: cell-based, Mycobacterium intracellulare; conditions: M. intracellulare (Cuttino and McCabe) Runyon ATCC 13950
[12] = log10 CFU/mL reduction as compared to buffer
[13] = E. coli isolates (n per peptide in table)
[14] = E. cloacae isolates (n per peptide in table)
[15] = P. aeruginosa isolates (n per peptide in table)
[16] = K. pneumoniae isolates (n per peptide in table)
[17] = A. baumannii isolates (n per peptide in table)

Substance: Lysozyme
- Viable persister count after treatment (log10 CFU/mL) ([1]; Run #1, limit of detection 2-log10 CFU/mL): 4.7 Log10 (CFU/mL)
- Viable persister count after treatment (log10 CFU/mL) ([1]; Run #2, limit of detection 2-log10 CFU/mL): 4.4 Log10 (CFU/mL)
- Viable persister count after treatment (log10 CFU/mL) ([1]; Run #3, limit of detection 2-log10 CFU/mL): 4.2 Log10 (CFU/mL)
- Viable persister count after treatment (log10 CFU/mL) ([1]; average of 3 runs): 4.4 Log10 (CFU/mL)
- Delta Log [1, 12]: 0.0
- MIC Log10 (CFU/mL) Run #1 ([2]; 1 hour at 37° C., Run #1, limit of detection 1.6-log10 CFU/mL): 3.5 Log10 (CFU/mL)
- MIC Log10 (CFU/mL) Run #2 ([2]; 1 hour at 37° C., Run #2, limit of detection 1.6-log10 CFU/mL): 5.2 Log10 (CFU/mL)
- MIC Log10 (CFU/mL) Run #3 ([2]; 1 hour at 37° C., Run #3, limit of detection 1.6-log10 CFU/mL): 5.0 Log10 (CFU/mL)
- MIC Log10 (CFU/mL) Average ([2]; average of 3 runs): 4.6 Log10 (CFU/mL)
- Delta Log [2, 12]: 0.3

Substance: Protegrin 1
- Minimal inhibitory concentration, Human Plasma ([3]; Mueller-Hinton broth with 50% human plasma): 1 µg/mL
- Minimal inhibitory concentration, Human Serum ([3]; Mueller-Hinton broth with human serum): 4 µg/mL

Substance: MARSRRRMSKRSSRRSFRKYAKSHKKNFKARSMRGGIRL [Ecp2]
- MIC ([4]; carbapenem-resistant isolate PA19): 0.5 µg/mL
- MIC ([4]; carbapenem-resistant isolate PA20): 8 µg/mL
- MIC ([4]; carbapenem-resistant isolate PA21): 8 µg/mL
- MIC ([4]; carbapenem-resistant isolate PA22): 4 µg/mL
- MIC ([4]; carbapenem-resistant isolate PA23): 2 µg/mL
- MIC ([4]; carbapenem-resistant isolate PA24): 2 µg/mL
- MIC ([4]; carbapenem-resistant isolate WLC-452): 1 µg/mL
- MIC (Escherichia coli; E. coli (ATCC 25922, MIC control strain), RSC 813, CAA without human serum): 2 µg/mL
- MIC (Escherichia coli; E. coli (HM346, colon, Crohn's disease), RSC 1212, CAA without human serum): 4 µg/mL
- MIC50 (Escherichia coli; [13]): 0.5 µg/mL
- MIC100 (Escherichia coli; [13]): 1 µg/mL
- MIC Range (Escherichia coli; [13]): 0.24 to 4 µg/mL
- MIC (Escherichia coli; Escherichia coli ATCC 25922, CAA supplemented with human serum): 0.5 µg/mL
- MIC50 (Enterobacter cloacae; [14]): 0.25 µg/mL
- MIC100 (Enterobacter cloacae; [14]): 0.5 µg/mL
- MIC Range (Enterobacter cloacae; [14]): 0.125 to 2 µg/mL
- MIC (Enterobacter cloacae; Enterobacter cloacae (ATCC 13047, MIC control strain), RSC 1240, CAA without human serum): 4 µg/mL
- MIC (Enterobacter cloacae; Enterobacter cloacae ATCC 13047, CAA supplemented with human serum): 16 µg/mL
- MIC (Pseudomonas aeruginosa; P. aeruginosa 453 (Human clinical isolate, HSS), RSC 1292): 8 µg/mL
- MIC (Pseudomonas aeruginosa; P. aeruginosa (ATCC 14213, human hip wound), RSC 1111): 4 µg/mL
- MIC (Pseudomonas aeruginosa; P. aeruginosa (ATCC 15152, abscess in middle ear), RSC 1110): 1 µg/mL
- MIC (Pseudomonas aeruginosa; P. aeruginosa (ATCC 15692, infected wound), RSC 489): 2 µg/mL
- MIC (Pseudomonas aeruginosa; P. aeruginosa (ATCC 15692, infected wound), RSC 1115): 8 µg/mL
- MIC (Pseudomonas aeruginosa; P. aeruginosa (ATCC 17646, human liver abscess), RSC 1109): 4 µg/mL
- MIC (Pseudomonas aeruginosa; P. aeruginosa (ATCC 19142, tracheobronchial secretion), RSC 1108): 4 µg/mL
- MIC (Pseudomonas aeruginosa; P. aeruginosa (ATCC 25102, bacteriophage host), RSC 1114): 2 µg/mL
- MIC (Pseudomonas aeruginosa; P. aeruginosa (ATCC 27853, MIC control strain), RSC 815): 2 µg/mL
- MIC (Pseudomonas aeruginosa; P. aeruginosa (ATCC BAA-27, lab strain), RSC 1113): 2 µg/mL
- MIC (Pseudomonas aeruginosa; P. aeruginosa (PAO1, alternate source, HER1018), RSC 490): 2 µg/mL
- MIC50 (Pseudomonas aeruginosa; [15]): 2 µg/mL
- MIC100 (Pseudomonas aeruginosa; [15]): 8 µg/mL
- MIC Range (Pseudomonas aeruginosa; [15]): 0.5 to 8 µg/mL
- 45 hr MIC (M. fortuitum): 4 µg/mL
- MIC50 (S. maltophilia): 8 µg/mL
- MIC100 (S. maltophilia): >8 µg/mL
- MIC (100% CAA) [5]: 0.25
- MIC (μg/mL) against CFS-1292 in 100% CAA (1st run/2nd run) ([6]; 100% CAA, 1st run or single value): 0.25 µg/mL
- MIC (μg/mL) against CFS-1292 in CAA + […] human serum ([6]; CAA + […] human serum): 0.25 µg/mL
- Fold change in MIC ([7]; CAA + 140 mM NaCl versus CAA without added NaCl): 8
- MIC, CAA + 140 mM NaCl ([7]; CAA + 140 mM NaCl, P. aeruginosa CFS-1292): 2 µg/mL
- MIC, CAA (no added NaCl) ([7]; CAA, no added NaCl, P. aeruginosa CFS-1292): 0.25 µg/mL
- 45 hr MIC (M. scrofulaceum): 4 µg/mL
- MIC (Klebsiella pneumoniae [8]; Klebsiella pneumoniae (ATCC 10031, MIC control strain), RSC 814): 4 µg/mL
- MIC (Klebsiella pneumoniae [8]; Klebsiella pneumoniae (g2-3 HM35K), RSC 1138): 2 µg/mL
- MIC (Klebsiella pneumoniae [8]; Klebsiella sp. (HM-44; colon, Crohn's disease), RSC 1139): 4 µg/mL
- MIC (Klebsiella pneumoniae [8]; Klebsiella spp. (HM-223; gut of Crohn's disease patient), RSC 1131): 2 µg/mL
- 45 hr MIC (M. avium): 2 µg/mL
- 45 hr MIC [9]: 2 µg/mL
- MIC50 (Klebsiella pneumoniae [10]; [16]): 0.5 µg/mL
- MIC100 (Klebsiella pneumoniae [10]; [16]): 1 µg/mL
- MIC Range (Klebsiella pneumoniae [10]; [16]): 0.5 to 1 µg/mL
- MIC (Klebsiella pneumoniae [10]; Klebsiella pneumoniae HM-44, CAA supplemented with human serum): 0.25 µg/mL
- MIC50 (Acinetobacter baumannii; [17]): 0.25 µg/mL
- MIC100 (Acinetobacter baumannii; [17]): 0.5 µg/mL
- MIC Range (Acinetobacter baumannii; [17]): 0.125 to 0.5 µg/mL
- MIC (Acinetobacter baumannii; Acinetobacter baumannii (clinical isolate HSS), RSC 30, CAA without human serum): 2 µg/mL
- MIC (Acinetobacter baumannii; Acinetobacter baumannii (clinical isolate HSS), RSC 32, CAA without human serum): 2 µg/mL
- MIC (Acinetobacter baumannii; Acinetobacter baumannii ATCC BAA 747, CAA supplemented with human serum): 1 µg/mL
- 45 hr MIC (M. smegmatis; M. smegmatis MC^2 155, Run #1): 4 µg/mL
- 45 hr MIC (M. smegmatis; M. smegmatis MC^2 155, Run #2): 8 µg/mL
- MIC ([11]; Mycobacterium tuberculosis (Zopf) Lehmann and Neumann ATCC 25177): 32 µg/mL
- MIC ([11]; Mycobacterium tuberculosis (Zopf) Lehmann and Neumann ATCC 35817): 8 µg/mL
- 45 hr MIC (M. intracellulare): 8 µg/mL
